From US7799524B2, “Substrates for O6-alkylguanina-DNA alkyltransferase” (Ecole Polytechnique Ferdeale de Lausanne, priority 2002, dated 2010)
Residue numbers refer to the chain shown, from its start. One block for each compound: values may come before it.

Experiments:
[1] = molecular target: T1, hAGT (Homo sapiens, UniProt P16455); settings: reaction with hAGT; cited from earlier work
T1 sequence (P16455 1-207): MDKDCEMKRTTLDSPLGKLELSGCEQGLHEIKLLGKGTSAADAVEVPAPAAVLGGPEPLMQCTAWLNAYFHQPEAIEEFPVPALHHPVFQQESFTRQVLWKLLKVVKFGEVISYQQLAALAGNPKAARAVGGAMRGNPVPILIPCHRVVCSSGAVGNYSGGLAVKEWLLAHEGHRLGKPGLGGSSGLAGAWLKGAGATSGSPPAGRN

[2] = molecular target: T2, ^PGEAhAGT-GST (Homo sapiens, UniProt P16455, G160A/N157G/S159E); test: Reactivity with hAGT fusion protein: pre-incubation with compound, then biotinylated O^6-benzylguanine-oligonucleotide, Western Blot (anti-biotin); format: biochemical; settings: 18 pmol protein, 0.2 μL of 5 mM compound in 15 μL 50 mM HEPES pH 7.5, 1 h, then 10 pmol biotinylated oligonucleotide 15 min
T2 sequence (P16455 1-207 N157G/S159E/G160A): T1 sequence (P16455 1-207) with N157G, S159E, G160A
Protocol: Lane marked “C” (control): The reaction product of ^[…] and the biotinylated O^6-benzylguanine oligonucleotide. […] Damoiseaux et al., ChemBiochem 4: 285-287, 2001) is added, and the reaction is allowed to continue for further 15 min. As a control 18 pmol ^[…] are incubated with 10 pmol of the same biotinylated oligonucleotide in a total volume of 15 μL of 50 mM HEPES pH 7.5 for 15 min without any substrate. Detection of the biotinylated reaction product between ^[…] and the biotinylated oligonucleotide is performed by Western Blotting using an anti-biotin conjugate coupled to HRP (Pierce).

[3] = molecular target: T2, ^PGEAhAGT-GST; test: Labelling of hAGT fusion protein, Western Blot with anti-fluorescein antibody; format: biochemical; settings: 18 pmol ^PGEAhAGT-GST, 0.5 nmol compound, 15 μL 50 mM HEPES pH 7.5
Protocol: Lanes 1 and 2 (two different concentrations) show the reaction product of compound 60 bearing a fluorescein label and a biotin label (a compound of formula 1 wherein L is a plurality of labels) with ^PGEAhAGT-GST.
18 pmol ^PGEAhAGT-GST are incubated with 0.5 nmol 60 in a total volume of 15 μL of 50 mM HEPES pH 7.5. The reaction product is detected by Western Blotting using a goat anti-fluorescein antibody (Rockland) and a HRP conjugated anti-goat antibody (Sigma).

[4] = molecular target: T3, GST-^3HYhAGT (Homo sapiens, UniProt P16455, A127T/K125A/N157G/R128A/S159E); test: In vitro reactivity against GST-^3HYhAGT followed by Western Blotting with anti-methotrexate antibody; format: biochemical
T3 construct: made in house; host or cells: E. coli
T3 sequence (P16455 1-207 K125A/A127T/R128A/N157G/S159E): T1 sequence (P16455 1-207) with K125A, A127T, R128A, N157G, S159E
Protocol: GST-^3HYhAGT is incubated with an excess of 78 or 79 and the reaction is followed by Western Blotting using an anti-methotrexate antibody. […] Accordingly, at concentrations of 78 of 1 μM and at an excess of 78 over ^3HYhAGT (pseudo first-order conditions), 50% of the protein is labelled in less than 10 min.
For the construction of hAGT fusion proteins, preferably the mutant Asn157Gly Ser159Glu is used. […] The rationale behind the introduction of these mutations is to minimize the interaction of hAGT fusion proteins with DNA in the three-hybrid system. The resulting hAGT mutant carrying the five mutations described above is abbreviated as ^3HYhAGT.

[5] = system: yeast L40 expressing LexA and B42 fusion proteins of ^3HYhAGT and DHFR; test: Growth assay of yeast L40 strains on plates lacking histidine (HIS3 reporter, three-hybrid system); format: cell-based; settings: for Growth rate: plates lacking histidine
Protocol: Pairs of plasmids encoding LexA-^3HYhAGT and B42-DHFR fusion proteins are transformed into the yeast strain L40 in which the reconstitution of functional LexA-B42 transcription factor leads to transcription of the reporter genes HIS3 and lacZ. It is tested if the expression of different combinations of fusion protein in the presence of either 78 or 79 complemented the histidine auxotrophy of the yeast L40 (Table 1). […] No growth is observed in the absence of 78 or 79.
In principal, the reconstitution of functional transcription factor through benzyl guanine 78 and 79 is independent of which ligand-binding protein is fused to LexA and which to B42. To verify this assumption the growth of yeast L40 co-expressing LexA-DHFR and B42-^3HYhAGT on plates lacking histidine but containing compounds 78 or 79 is examined.

[6] = system: yeast strain L40 expressing LexA and B42 fusion proteins of ^3HYhAGT and DHFR; test: Quantitative β-galactosidase assay using ONPG (lacZ reporter) in yeast L40; format: cell-based; settings: 1 μM, cell extracts of liquid cultures
Protocol: The activation of transcription of the lacZ reporter gene by the benzyl guanine based compounds 78 and 79 in the yeast strain L40 expressing different combinations of LexA and B42 fusion proteins is examined (Table 2). In this assay, the activity of the product of the lacZ gene, β-galactosidase, is determined by measuring the hydrolysis rate of the chromogenic substrate o-nitrophenyl-β-D-galactopyranoside (ONPG) in cell extracts of liquid cultures.

[7] = co-expression of LexA-DHFR and B42-^3HYhAGT
[8] = co-expression of LexA-^3HYhAGT and B42-DHFR

Structure (SMILES): Nc1nc(OCc2ccccc2)c2nc[nH]c2n1 [O^6-benzylguanine]
second order rate constant [1]: approximately 10^3 sec^−1 M^−1

Structure (SMILES): NCCOCCOCCOCCn1cc(COc2nc(N)nc3[nH]cnc23)nn1 [compound 11, O^6-(1-[11-Amino-3,6,9-trioxaundecyl]-1,2,3-triazolyl-4-methyl)guanine]
reaction of ^PGEAhAGT-GST with biotinylated oligonucleotide after first reacting with the compound [2]: no further reaction with biotinylated oligonucleotide is observed

substrate for hAGT (reaction product detected by Western Blotting) [3]: efficient substrate for hAGT
Structure (SMILES): Nc1nc(OCc2ccc(COCCOCCOCCOCCNC(=O)C(CCCCNC(=O)CCCCCNC(=O)c3ccc(-c4c5ccc(=O)cc-5oc5cc(O)ccc45)c(C(=O)O)c3)NC(=O)CCCCCNC(=O)CCCC[C@H]3SC[C@H]4NC(=O)N[C@H]43)cc2)c2nc[nH]c2n1 (stereo partly drawn) [compound 60, O^6-Benzylguanine-PEG-amino-α-N-(biotinyl-6-aminocaproyl)-ε-N-(6-[fluorescein-5-carbonyl]-aminocaproyl)-lysine]

Structure (SMILES): CN(Cc1cnc2nc(N)nc(N)c2n1)c1ccc(C(=O)N[C@@H](CCC(=O)NCCCCCCCCCCCC(=O)NCc2ccc(COc3nc(N)nc4[nH]cnc34)cc2)C(=O)O)cc1 [compound 78]
time in which 50% of the protein is labelled ([4]; 1 μM 78, excess over ^3HYhAGT, pseudo first-order conditions): less than 10 min
kinact/KI ([4]; GST-^3HYhAGT incubated with an excess of compound, read-out: second-order rate constant): ~1500 M⁻¹ s⁻¹
Growth rate ([5]; LexA-DHFR/ B42-^3HYhAGT, 1 μM): ++ (detection of colonies within 3 days)
Growth rate ([5]; LexA-^3HYhAGT/ B42-DHFR, 1 μM): +++ (detection of colonies within 2 days)
growth of yeast L40 on plates lacking histidine (in words) [5, 7]: growth dependent on compounds 78 or 79 is observed
growth of yeast L40 on plates lacking histidine (in words) [5, 8]: allows yeast L40 to grow on plates lacking histidine
ONPG hydrolysis ([6]; LexA-DHFR/ B42-^3HYhAGT): 28 nM of o-nitrophenol formed per min per mg total protein
ONPG hydrolysis ([6]; LexA-^3HYhAGT/ B42-DHFR): 865 nM of o-nitrophenol formed per min per mg total protein

Structure (SMILES): CN(Cc1cnc2nc(N)nc(N)c2n1)c1ccc(C(=O)NC(CCC(=O)NCCOCCOCCOCCOCc2ccc(COc3nc(N)nc4nc[nH]c34)cc2)C(=O)O)cc1 (stereo not drawn) [compound 79, O^6-4-[13-N-(4-{4-[N-(2,4-Diamino-6-pteridinylmethyl)-methylamino]-benzoyl-amino}-4-carboxybutanoyl)-amino-2,5,8,11-tetraoxatridecyl]-benzyl guanine]
second-order rate constant ([4]; GST-^3HYhAGT incubated with an excess of compound): ~900 sec^−1M^−1
Growth rate ([5]; LexA-DHFR/ B42-^3HYhAGT, 10 μM): ++ (detection of colonies within 3 days)
Growth rate ([5]; LexA-^3HYhAGT/ B42-DHFR, 10 μM): +++ (detection of colonies within 2 days)
growth of yeast L40 on plates lacking histidine (in words) [5, 7]: growth dependent on compounds 78 or 79 is observed
growth of yeast L40 on plates lacking histidine (in words) [5, 8]: allows yeast L40 to grow on plates lacking histidine
ONPG hydrolysis ([6]; LexA-DHFR/ B42-^3HYhAGT): 24 nM of o-nitrophenol formed per min per mg total protein
ONPG hydrolysis ([6]; LexA-^3HYhAGT/ B42-DHFR): 63 nM of o-nitrophenol formed per min per mg total protein
